{"source": "paper PMC10046961", "about": "“High-Throughput Screening Assay for Detecting Drug-Induced Changes in Synchronized Neuronal Oscillations and Potential Seizure Risk Based on Ca^2+ Fluorescence Measurements in Human Induced Pluripotent Stem Cell (hiPSC)-Derived Neuronal 2D and 3D Cultures” (Cells, 2023)", "key": {"[1]": {"system": "hiPSC-derived neurons co-cultured with human primary astrocytes in 2D", "test": "Ca2+ transient oscillation assay (FDSS), 2D co-culture", "format": "cell-based", "settings": "for activation at 3.7 µM / activation at 11.11 µM / activation at 33.33 µM / activation at 100 µM / activation at 0.11 µM / activation at 0.33 µM / activation at 1 µM / activation at 3 µM: Homo sapiens, 1 h, 60 min", "summary_of_the_method": "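Cultures were 10,000 CW50065 hiPSC excitatory neurons plus 2500 primary human astrocytes per well. Recordings used Cal-520 dye in HBSS/HEPES/glucose at 37 °C, with a 470/540 nm read at 2 Hz. Oscillations were stabilized with 0.04% DMSO, read for 20 min, then read again 60 min after compound addition (final DMSO 0.1%).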"}, "[2]": {"settings": "ref PharmaPendium, cited from earlier work"}, "[3]": {"system": "hiPSC-derived neurons co-cultured with human primary astrocytes in 3D", "test": "Ca2+ transient oscillation assay (FDSS), 3D spheroids", "format": "cell-based", "settings": "for Area under the curve - 3D Mean / Peak Number—3D Mean / Peak amplitude - 3D Mean / Peak width - 3D Mean / Peak-to-peak interval - 3D Mean: 60 min", "summary_of_the_method": "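Fura-2 fluorescence was read twice for 20 min each: a baseline 10 min after 0.04% DMSO, and again 60 min after compound addition at nominal final concentration. The 3D co-cultures (1:1 hiPSC neurons from a donor and human astrocytes, 8000 each) matured 5 weeks in BrainPhys medium after a 1-week differentiation.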"}, "[4]": {"settings": "read-out: Area under the curve - 2D Mean"}, "[5]": {"settings": "read-out: Peak amplitude - 2D Mean"}, "[6]": {"settings": "read-out: Peak-to-peak interval - 2D Mean"}, "[7]": {"settings": "Table 1, peak plasma concentration in men, free therapeutic Cmax"}, "[8]": {"settings": "Table 2, highest plasma concentration in humans after the therapeutic dose"}}, "note": "Where two headings read alike, the source gives them in different places."}
{"smiles": "CC(=O)Oc1ccccc1C(=O)O", "note": "[Aspirin]", "values": [{"measurement": "activation at 3.7 µM", "setting": "[1]; [4]", "result": 48.5, "unit": "%"}, {"measurement": "activation at 3.7 µM", "setting": "[1]; read-out: Peak Number—2D Mean", "result": -10.2, "unit": "%"}, {"measurement": "activation at 3.7 µM", "setting": "[1]; [5]", "result": 13.1, "unit": "%"}, {"measurement": "activation at 3.7 µM", "setting": "[1]; read-out: Peak width - 2D Mean", "result": 43.6, "unit": "%"}, {"measurement": "activation at 3.7 µM", "setting": "[1]; [6]", "result": 15.5, "unit": "%"}, {"measurement": "activation at 11.11 µM", "setting": "[1]; [4]", "result": 25.7, "unit": "%"}, {"measurement": "activation at 11.11 µM", "setting": "[1]; read-out: Peak Number—2D Mean", "result": 17.6, "unit": "%"}, {"measurement": "activation at 11.11 µM", "setting": "[1]; [5]", "result": 4.2, "unit": "%"}, {"measurement": "activation at 11.11 µM", "setting": "[1]; read-out: Peak width - 2D Mean", "result": 25.9, "unit": "%"}, {"measurement": "activation at 11.11 µM", "setting": "[1]; [6]", "result": 1.8, "unit": "%"}, {"measurement": "activation at 33.33 µM", "setting": "[1]; [4]", "result": 37.6, "unit": "%"}, {"measurement": "activation at 33.33 µM", "setting": "[1]; read-out: Peak Number—2D Mean", "result": 10.1, "unit": "%"}, {"measurement": "activation at 33.33 µM", "setting": "[1]; [5]", "result": 6.2, "unit": "%"}, {"measurement": "activation at 33.33 µM", "setting": "[1]; read-out: Peak width - 2D Mean", "result": 38.3, "unit": "%"}, {"measurement": "activation at 33.33 µM", "setting": "[1]; [6]", "result": -0.5, "unit": "%"}, {"measurement": "activation at 100 µM", "setting": "[1]; [4]", "result": 30, "unit": "%"}, {"measurement": "activation at 100 µM", "setting": "[1]; read-out: Peak Number—2D Mean", "result": 27.9, "unit": "%"}, {"measurement": "activation at 100 µM", "setting": "[1]; [5]", "result": 3.9, "unit": "%"}, {"measurement": "activation at 100 µM", "setting": "[1]; read-out: Peak width - 2D Mean", "result": 32.1, "unit": "%"}, {"measurement": "activation at 100 µM", "setting": "[1]; [6]", "result": -17, "unit": "%"}, {"measurement": "Free Cmax", "setting": "[2]; [7]", "result": "40 to 160", "unit": "nM"}, {"measurement": "Free Cmax", "setting": "[2]; [8]", "result": "40 to 160", "unit": "nM"}, {"measurement": "Area under the curve - 3D Mean", "setting": "[3]; 3.7 µM", "result": 139.0, "unit": "% change from baseline"}, {"measurement": "Peak Number—3D Mean", "setting": "[3]; 3.7 µM", "result": "−0.4", "unit": "% change from baseline"}, {"measurement": "Peak amplitude - 3D Mean", "setting": "[3]; 3.7 µM", "result": 129.1, "unit": "% change from baseline"}, {"measurement": "Peak width - 3D Mean", "setting": "[3]; 3.7 µM", "result": 4.2, "unit": "% change from baseline"}, {"measurement": "Peak-to-peak interval - 3D Mean", "setting": "[3]; 3.7 µM", "result": 10.9, "unit": "% change from baseline"}, {"measurement": "Area under the curve - 3D Mean", "setting": "[3]; 11.11 µM", "result": 139.2, "unit": "% change from baseline"}, {"measurement": "Peak Number—3D Mean", "setting": "[3]; 11.11 µM", "result": 0.0, "unit": "% change from baseline"}, {"measurement": "Peak amplitude - 3D Mean", "setting": "[3]; 11.11 µM", "result": 138.1, "unit": "% change from baseline"}, {"measurement": "Peak width - 3D Mean", "setting": "[3]; 11.11 µM", "result": 0.3, "unit": "% change from baseline"}, {"measurement": "Peak-to-peak interval - 3D Mean", "setting": "[3]; 11.11 µM", "result": "−2.2", "unit": "% change from baseline"}, {"measurement": "Area under the curve - 3D Mean", "setting": "[3]; 33.33 µM", "result": 147.8, "unit": "% change from baseline"}, {"measurement": "Peak Number—3D Mean", "setting": "[3]; 33.33 µM", "result": 10.0, "unit": "% change from baseline"}, {"measurement": "Peak amplitude - 3D Mean", "setting": "[3]; 33.33 µM", "result": 135.8, "unit": "% change from baseline"}, {"measurement": "Peak width - 3D Mean", "setting": "[3]; 33.33 µM", "result": 5.0, "unit": "% change from baseline"}, {"measurement": "Peak-to-peak interval - 3D Mean", "setting": "[3]; 33.33 µM", "result": "−1.7", "unit": "% change from baseline"}, {"measurement": "Area under the curve - 3D Mean", "setting": "[3]; 100 µM", "result": 133.2, "unit": "% change from baseline"}, {"measurement": "Peak Number—3D Mean", "setting": "[3]; 100 µM", "result": "−8.2", "unit": "% change from baseline"}, {"measurement": "Peak amplitude - 3D Mean", "setting": "[3]; 100 µM", "result": 123.5, "unit": "% change from baseline"}, {"measurement": "Peak width - 3D Mean", "setting": "[3]; 100 µM", "result": 4.7, "unit": "% change from baseline"}, {"measurement": "Peak-to-peak interval - 3D Mean", "setting": "[3]; 100 µM", "result": 6.7, "unit": "% change from baseline"}]}
{"smiles": "Clc1ccc2c(c1)C(N1CCNCC1)=Nc1ccccc1O2", "note": "[Amoxapine]", "values": [{"measurement": "effect on peak number / Ca2+ neuronal oscillations, in words", "setting": "[1]; 2D format", "result": "significantly reduced peak number"}, {"measurement": "activation at 0.11 µM", "setting": "[1]; [4]", "result": 27.8, "unit": "%"}, {"measurement": "activation at 0.11 µM", "setting": "[1]; read-out: Peak Number—2D Mean", "result": -5.2, "unit": "%"}, {"measurement": "activation at 0.11 µM", "setting": "[1]; [5]", "result": 7.7, "unit": "%"}, {"measurement": "activation at 0.11 µM", "setting": "[1]; read-out: Peak width - 2D Mean", "result": 22, "unit": "%"}, {"measurement": "activation at 0.11 µM", "setting": "[1]; [6]", "result": 8.8, "unit": "%"}, {"measurement": "activation at 0.33 µM", "setting": "[1]; [4]", "result": 25.3, "unit": "%"}, {"measurement": "activation at 0.33 µM", "setting": "[1]; read-out: Peak Number—2D Mean", "result": 25.3, "unit": "%"}, {"measurement": "activation at 0.33 µM", "setting": "[1]; [5]", "result": 12.7, "unit": "%"}, {"measurement": "activation at 0.33 µM", "setting": "[1]; read-out: Peak width - 2D Mean", "result": 14.8, "unit": "%"}, {"measurement": "activation at 0.33 µM", "setting": "[1]; [6]", "result": -7.8, "unit": "%"}, {"measurement": "activation at 1 µM", "setting": "[1]; [4]", "result": 22.8, "unit": "%"}, {"measurement": "activation at 1 µM", "setting": "[1]; read-out: Peak Number—2D Mean", "result": 12.5, "unit": "%"}, {"measurement": "activation at 1 µM", "setting": "[1]; [5]", "result": -1.5, "unit": "%"}, {"measurement": "activation at 1 µM", "setting": "[1]; read-out: Peak width - 2D Mean", "result": 31.7, "unit": "%"}, {"measurement": "activation at 1 µM", "setting": "[1]; [6]", "result": -4.5, "unit": "%"}, {"measurement": "activation at 3 µM", "setting": "[1]; [4]", "result": -40.8, "unit": "%"}, {"measurement": "activation at 3 µM", "setting": "[1]; read-out: Peak Number—2D Mean", "result": -35.3, "unit": "%"}, {"measurement": "activation at 3 µM", "setting": "[1]; [5]", "result": -20.7, "unit": "%"}, {"measurement": "activation at 3 µM", "setting": "[1]; read-out: Peak width - 2D Mean", "result": -37.7, "unit": "%"}, {"measurement": "activation at 3 µM", "setting": "[1]; [6]", "result": 56.7, "unit": "%"}, {"measurement": "Free Cmax", "setting": "[2]; [7]", "result": "40 to 600", "unit": "nM"}, {"measurement": "Free Cmax", "setting": "[2]; [8]", "result": "40 to 600", "unit": "nM"}, {"measurement": "Area under the curve - 3D Mean", "setting": "[3]; 0.11 µM", "result": 122.7, "unit": "% change from baseline"}, {"measurement": "Peak Number—3D Mean", "setting": "[3]; 0.11 µM", "result": "−10.1", "unit": "% change from baseline"}, {"measurement": "Peak amplitude - 3D Mean", "setting": "[3]; 0.11 µM", "result": 92.4, "unit": "% change from baseline"}, {"measurement": "Peak width - 3D Mean", "setting": "[3]; 0.11 µM", "result": 11.9, "unit": "% change from baseline"}, {"measurement": "Peak-to-peak interval - 3D Mean", "setting": "[3]; 0.11 µM", "result": 14.8, "unit": "% change from baseline"}, {"measurement": "Area under the curve - 3D Mean", "setting": "[3]; 0.33 µM", "result": 130.2, "unit": "% change from baseline"}, {"measurement": "Peak Number—3D Mean", "setting": "[3]; 0.33 µM", "result": "−2.2", "unit": "% change from baseline"}, {"measurement": "Peak amplitude - 3D Mean", "setting": "[3]; 0.33 µM", "result": 101.9, "unit": "% change from baseline"}, {"measurement": "Peak width - 3D Mean", "setting": "[3]; 0.33 µM", "result": 12.5, "unit": "% change from baseline"}, {"measurement": "Peak-to-peak interval - 3D Mean", "setting": "[3]; 0.33 µM", "result": 7.1, "unit": "% change from baseline"}, {"measurement": "Area under the curve - 3D Mean", "setting": "[3]; 1 µM", "result": 124.0, "unit": "% change from baseline"}, {"measurement": "Peak Number—3D Mean", "setting": "[3]; 1 µM", "result": "−10.8", "unit": "% change from baseline"}, {"measurement": "Peak amplitude - 3D Mean", "setting": "[3]; 1 µM", "result": 102.7, "unit": "% change from baseline"}, {"measurement": "Peak width - 3D Mean", "setting": "[3]; 1 µM", "result": 6.8, "unit": "% change from baseline"}, {"measurement": "Peak-to-peak interval - 3D Mean", "setting": "[3]; 1 µM", "result": 4.4, "unit": "% change from baseline"}, {"measurement": "Area under the curve - 3D Mean", "setting": "[3]; 3 µM", "result": 148.1, "unit": "% change from baseline"}, {"measurement": "Peak Number—3D Mean", "setting": "[3]; 3 µM", "result": "−7.5", "unit": "% change from baseline"}, {"measurement": "Peak amplitude - 3D Mean", "setting": "[3]; 3 µM", "result": 105.1, "unit": "% change from baseline"}, {"measurement": "Peak width - 3D Mean", "setting": "[3]; 3 µM", "result": 21.0, "unit": "% change from baseline"}, {"measurement": "Peak-to-peak interval - 3D Mean", "setting": "[3]; 3 µM", "result": "−6.6", "unit": "% change from baseline"}, {"measurement": "effect on peak number of oscillations, in words", "setting": "[3]; 3D-cultured", "result": "did not significantly change the peak number"}]}
